From patent US6362369B1, “Phthalic acid diamide derivatives fluorine-containing aniline compounds as starting material, agricultural and horticultural insecticides, and a method for application of the insecticides” (Nihon Nohyaku Co., Ltd., priority 1997, dated 2002) come the findings set out here.

Test [1] relates to diamondback moth (Plutella xylostella). Description: Insecticidal effect on diamondback moth (Test Example 1). It is filed as in vivo. The following applies: for Insecticidal effect, Test Example 1: diamondback moth, judged by the mortality criterion of Test Example 1; for Insecticidal effect on diamondback moth (Test Example 1), judged grade: mortality judged according to the criterion shown in Test Example 1. The procedure, abridged:
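Oviposition by adults on Chinese cabbage seedling; immersion; air-dry; 25° C room. Count of hatched larvae at day 6 post-immersion → mortality → effect graded by criterion. Triplicate, 10 insects/group.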

Test [2] deals with rice leafroller (Cnaphalocrocis medinalis). Description: Insecticidal effect on rice leafroller (Test Example 3). The following applies: 500 ppm, four days after inoculation, 25° C., humidity 70%; for Insecticidal effect, Test Example 3: rice lamina immersed, third-instar larvae of rice leafroller; for Insecticidal effect on rice leafroller (Test Example 3), judged grade: rice lamina dip, third-instar larvae. The test is classed as in vivo. In outline:
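Insecticidal effect is judged by a predefined criterion from dead/alive counts four days after infesting air-dried lamina with third-instar larvae, kept on moistened filter paper at 25° C, 70% humidity.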

As to `CSc1ccc(NC(=O)c2c(Br)cccc2C(=O)NC(C)C)c(C)c1` [compound 333], the “Insecticidal effect, Test Example 1” value in test [1] is given as “A (100)”. Further, in test [2], the “Insecticidal effect, Test Example 3” value is “D (79-50)”.
On to `Cc1cc(Oc2ccc(C(F)(F)F)cn2)ccc1NC(=O)c1c(Br)cccc1C(=O)NC(C)C` [compound 335], for which, in test [1], the “Insecticidal effect, Test Example 1” value is given as “A (100)”. In addition, the “Insecticidal effect, Test Example 3” value in test [2] is on record as “B (99-90)”.
`Cc1cc(Oc2ncc(C(F)(F)F)cc2Cl)ccc1NC(=O)c1c(Br)cccc1C(=O)NC(C)C` [compound 336]: the “Insecticidal effect, Test Example 1” value in test [1] is “A (100)”. Moreover, the “Insecticidal effect, Test Example 3” value in test [2] is “D (79-50)”.
On the same counts, the results for `CC(C)NC(=O)c1cccc(Br)c1C(=O)Nc1ccc2c(c1)OCO2` [compound 337] are “A (100)” and “A (100)”.
With `Cc1cc(OC(F)F)ccc1NC(=O)c1c(Br)ccc(Br)c1C(=O)NC(C)C` [compound 340], the “Insecticidal effect, Test Example 1” value in test [1] is given as “A (100)”. In test [2], the “Insecticidal effect, Test Example 3” value is listed as “A (100)”.
Consider `Cc1cc(Cl)ccc1NC(=O)c1c(Br)ccc(Br)c1C(=O)NC(C)C` [compound 341], for which, in test [1], the “Insecticidal effect, Test Example 1” value is “A (100)”. Moreover, in test [2], the “Insecticidal effect, Test Example 3” value is given as “A (100)”.
`CC(C)NC(=O)c1c(I)cccc1C(=O)Nc1cccc(C(F)(F)F)c1` [compound 348]: the “Insecticidal effect, Test Example 1” value in test [1] was “A (100)”. Besides, in test [2], the “Insecticidal effect, Test Example 3” value is “A (100)”.
`COc1ccc(NC(=O)c2cccc(I)c2C(=O)NC(C)C)c(C)c1` [compound 376]: in test [1], the “Insecticidal effect, Test Example 1” value is “A (100)”. The “Insecticidal effect, Test Example 3” value in test [2] was “A (100)”.
`Cc1cc(OC(C)C)ccc1NC(=O)c1cccc(I)c1C(=O)NC(C)C` [compound 377]: the “Insecticidal effect, Test Example 1” value in test [1] was “A (100)”. Moreover, the “Insecticidal effect, Test Example 3” value in test [2] is reported as “A (100)”.
`CC(C)NC(=O)c1c(I)cccc1C(=O)Nc1cc(Cl)c(OC(F)F)c(Cl)c1` [compound 383]: the “Insecticidal effect, Test Example 1” value in test [1] is reported as “A (100)”. Further, the “Insecticidal effect, Test Example 3” value in test [2] is “A (100)”.
Take `COc1cc(NC(=O)c2cccc(I)c2C(=O)NC(C)C)ccc1OC(F)F` [compound 384]: the “Insecticidal effect, Test Example 1” value in test [1] was “A (100)”. Further, in test [2], the “Insecticidal effect, Test Example 3” value is reported as “C (89-80)”.
Take `CC(C)NC(=O)c1cccc(I)c1C(=O)Nc1ccc(Cl)cc1` [compound 411]: the “Insecticidal effect, Test Example 1” value in test [1] is given as “A (100)”. Moreover, the “Insecticidal effect, Test Example 3” value in test [2] is “A (100)”.
For `CC(C)NC(=O)c1cccc(I)c1C(=O)Nc1ccc(Br)cc1` [compound 412], in test [1], the “Insecticidal effect, Test Example 1” value is “A (100)”. Besides, in test [2], the “Insecticidal effect, Test Example 3” value is recorded as “C (89-80)”.
Regarding `CC(C)NC(=O)c1cccc(I)c1C(=O)Nc1ccc(I)cc1` [compound 413], the “Insecticidal effect, Test Example 1” value in test [1] is given as “A (100)”. Moreover, the “Insecticidal effect, Test Example 3” value in test [2] is listed as “C (89-80)”.
Turning to `CC(C)NC(=O)c1cccc(I)c1C(=O)Nc1cccc(C(F)(F)F)c1` [compound 414], the “Insecticidal effect, Test Example 1” value in test [1] is reported as “A (100)”. In addition, the “Insecticidal effect, Test Example 3” value in test [2] is “A (100)”.
Turning to `CC(C)NC(=O)c1cccc(I)c1C(=O)Nc1ccc(SCC(F)(F)F)cc1` [compound 420], the “Insecticidal effect, Test Example 1” value in test [1] is on record as “A (100)”. In test [2], the “Insecticidal effect, Test Example 3” value is given as “D (79-50)”.
On the same counts, the results for `Cc1c(Cl)cccc1NC(=O)c1c(I)cccc1C(=O)NC(C)C` [compound 427] are “A (100)” and “D (79-50)”.
On the same counts, the results for `Cc1cc(F)ccc1NC(=O)c1c(I)cccc1C(=O)NC(C)C` [compound 432] are “A (100)” and “A (100)”.
Regarding `CC(C)NC(=O)c1cccc(I)c1C(=O)Nc1ccc(C(F)(F)F)cc1Cl` [compound 433], the “Insecticidal effect, Test Example 1” value in test [1] is reported as “A (100)”. Moreover, the “Insecticidal effect, Test Example 3” value in test [2] is on record as “A (100)”.
For the molecule `COc1ccc(NC(=O)c2c(I)cccc2C(=O)NC(C)C)c(C)c1` [compound 441], the “Insecticidal effect, Test Example 1” value in test [1] was “A (100)”. Further, the “Insecticidal effect, Test Example 3” value in test [2] is given as “B (99-90)”.
As for `Cc1cc(OCC(F)(F)F)ccc1NC(=O)c1c(I)cccc1C(=O)NC(C)C` [compound 443], the “Insecticidal effect, Test Example 1” value in test [1] is recorded as “A (100)”. The “Insecticidal effect, Test Example 3” value in test [2] was “D (79-50)”.
In the case of `Cc1cc(OC(F)(F)C(F)(F)Br)ccc1NC(=O)c1c(I)cccc1C(=O)NC(C)C` [compound 444], the “Insecticidal effect, Test Example 1” value in test [1] is reported as “A (100)”. Moreover, in test [2], the “Insecticidal effect, Test Example 3” value is “A (100)”.
Take `CC(C)NC(=O)c1cccc(I)c1C(=O)Nc1ccc(OC(F)F)c(F)c1` [compound 448]: in test [1], the “Insecticidal effect on diamondback moth (Test Example 1), judged grade” value (shortened to “Insecticidal effect on diamondback moth”) was “A (100)”. In addition, the “Insecticidal effect on rice leafroller (Test Example 3), judged grade” value (shortened to “Insecticidal effect on rice leafroller”) in test [2] is “A (100)”.
With `COc1cc(NC(=O)c2c(I)cccc2C(=O)NC(C)C)ccc1OC(F)F` [compound 450], the “Insecticidal effect on diamondback moth” value in test [1] is “A (100)”. Also, in test [2], the “Insecticidal effect on rice leafroller” value is recorded as “C (89-80)”.
Regarding `Cc1cc(OC(F)(F)C(F)C(F)(F)F)ccc1NC(=O)c1c(I)cccc1C(=O)NC(C)C` (stereo not shown) [compound 456], in test [1], the “Insecticidal effect on diamondback moth” value is recorded as “A (100)”. The “Insecticidal effect on rice leafroller” value in test [2] is listed as “A (100)”.
For `Cc1cc(OC(F)(F)F)ccc1NC(=O)c1c(I)cccc1C(=O)NC(C)C` [compound 464], the “Insecticidal effect on diamondback moth” value in test [1] is on record as “A (100)”. For the same molecule, in test [2], the “Insecticidal effect on rice leafroller” value was “A (100)”.
For the molecule `CC(C)NC(=O)c1cccc(I)c1C(=O)Nc1ccc(OC(F)(F)F)cc1Br` [compound 466], in test [1], the “Insecticidal effect on diamondback moth” value is “A (100)”. The “Insecticidal effect on rice leafroller” value in test [2] was “A (100)”.
As to `CC(C)NC(=O)c1cccc(I)c1C(=O)Nc1ccc(OC(F)(F)F)cc1Cl` [compound 467], the “Insecticidal effect on diamondback moth” value in test [1] is on record as “A (100)”. Besides, the “Insecticidal effect on rice leafroller” value in test [2] is listed as “A (100)”.
For the molecule `CC(C)NC(=O)c1c(F)cccc1C(=O)Nc1ccc(C(F)(F)C(F)(F)C(F)(F)C(F)(F)F)cc1` [compound 472], the “Insecticidal effect on diamondback moth” value in test [1] is “A (100)”. The “Insecticidal effect on rice leafroller” value in test [2] is recorded as “B (99-90)”.
On the same counts, the results for `CC(C)NC(=O)c1c(F)cccc1C(=O)Nc1ccc(OC(F)(F)F)cc1` [compound 475] are “A (100)” and “D (79-50)”.
Regarding `CC(C)NC(=O)c1c(F)cccc1C(=O)Nc1ccc(SC(F)F)cc1` [compound 477], in test [1], the “Insecticidal effect on diamondback moth” value is “A (100)”. Further, the “Insecticidal effect on rice leafroller” value in test [2] was “C (89-80)”.
Regarding `CC(C)NC(=O)c1c(F)cccc1C(=O)Nc1ccc(SC(F)(F)C(F)F)cc1` [compound 479], in test [1], the “Insecticidal effect on diamondback moth” value is “A (100)”. In test [2], the “Insecticidal effect on rice leafroller” value was “A (100)”.
In the case of `Cc1c(F)cccc1NC(=O)c1cccc(F)c1C(=O)NC(C)C` [compound 494], the “Insecticidal effect on diamondback moth” value in test [1] was “A (100)”. Further, the “Insecticidal effect on rice leafroller” value in test [2] is “A (100)”.
Turning to `Cc1cc(OC(F)(F)C(F)OC(F)(F)F)ccc1NC(=O)c1cccc(F)c1C(=O)NC(C)C` (stereo not shown) [compound 515], in test [1], the “Insecticidal effect on diamondback moth” value was “A (100)”. The “Insecticidal effect on rice leafroller” value in test [2] was “C (89-80)”.
On the same counts, the results for `Cc1cc(SC(C)C)ccc1NC(=O)c1cccc(F)c1C(=O)NC(C)C` [compound 518] are “A (100)” and “B (99-90)”.
As to `CC(C)NC(=O)c1c(F)cccc1C(=O)Nc1ccc2c(c1)OCO2` [compound 528], the “Insecticidal effect on diamondback moth” value in test [1] is “A (100)”. For the same molecule, the “Insecticidal effect on rice leafroller” value in test [2] is “A (100)”.
For the molecule `Cc1ccc(Cl)cc1NC(=O)c1ccc(F)cc1C(=O)NC(C)C` [compound 530], in test [1], the “Insecticidal effect on diamondback moth” value is given as “A (100)”. For the same molecule, in test [2], the “Insecticidal effect on rice leafroller” value is reported as “D (79-50)”.
For the molecule `Cc1cc(OC(F)F)ccc1NC(=O)c1ccc(F)cc1C(=O)NC(C)C` [compound 531], the “Insecticidal effect on diamondback moth” value in test [1] is on record as “A (100)”. In test [2], the “Insecticidal effect on rice leafroller” value is reported as “A (100)”.
Turning to `Cc1cc(Cl)ccc1NC(=O)c1cc(F)ccc1C(=O)NC(C)C` [compound 532], the “Insecticidal effect on diamondback moth” value in test [1] was “A (100)”. The “Insecticidal effect on rice leafroller” value in test [2] is “A (100)”.
Regarding `Cc1cc(OC(F)F)ccc1NC(=O)c1cc(F)ccc1C(=O)NC(C)C` [compound 534], the “Insecticidal effect on diamondback moth” value in test [1] is “A (100)”. Besides, the “Insecticidal effect on rice leafroller” value in test [2] is “A (100)”.
Take `CC(C)NC(=O)c1cccc(F)c1C(=O)Nc1cccc(Cl)c1Cl` [compound 543]: the “Insecticidal effect on diamondback moth” value in test [1] is “A (100)”. The “Insecticidal effect on rice leafroller” value in test [2] is “A (100)”.
In the case of `Cc1c(Cl)cccc1NC(=O)c1c(F)cccc1C(=O)NC(C)C` [compound 544], the “Insecticidal effect on diamondback moth” value in test [1] was “A (100)”. Moreover, the “Insecticidal effect on rice leafroller” value in test [2] is reported as “A (100)”.
With `Cc1cc(Cl)ccc1NC(=O)c1c(F)cccc1C(=O)NC(C)C` [compound 545], the “Insecticidal effect on diamondback moth” value in test [1] was “A (100)”. Moreover, the “Insecticidal effect on rice leafroller” value in test [2] is recorded as “A (100)”.
In the case of `Cc1ccc(Cl)cc1NC(=O)c1c(F)cccc1C(=O)NC(C)C` [compound 546], in test [1], the “Insecticidal effect on diamondback moth” value is given as “A (100)”. Moreover, the “Insecticidal effect on rice leafroller” value in test [2] is on record as “A (100)”.
